The test system of assay [1] is HCV 1b genotype replicon. As to the kind of experiment: HCV replicon assay, qRT-PCR (HCV RNA detection), genotype 1b replicon EC50. The format is cell-based. The note with it: Hepatitis C virus, read-out: 1b EC50. The text has this: HCV replicon cell lines (kindly provided by R. Bartenschlager) isolated from colonies as described by Lohman et al. (Lohman et al. (1999) Science 285: 110-113, expressly incorporated by reference in its entirety) and used for all experiments. The HCV replicon has the nucleic acid sequence set forth in EMBL Accession No.: AJ242651, the coding sequence of which is from nucleotides 1801 to 8406.
The coding sequence of the published HCV replicon was synthesized and subsequently assembled in a modified plasmid pBR322 (Promega, Madison, Wis.) using standard molecular biology techniques. […]
EC50 values of single agent compounds were determined by HCV RNA detection using quantitative RT-PCR, according to the manufacturer's instructions, with a TAQMAN® One-Step RT-PCR Master Mix Reagents Kit (Cat #AB 4309169, Applied Biosystems) on an ABI Model 7500 thermocycler. EC50 values of combinations are similarly determined by HCV RNA detection using quantitative RT-PCR. The TAQMAN primers to use for detecting and quantifying HCV RNA obtained from Integrated DNA Technologies. HCV RNA is normalized to GAPDH RNA levels in drug-treated cells, which is detected and quantified using the Human GAPDH Endogenous Control Mix (Applied Biosystems, AB 4310884E). […] Chemical agent cytotoxicity is evaluated using an MTS assay according to the manufacturer's directions (Promega). […]

Assay [2] deals with HCV 1a genotype replicon. As to the kind of experiment: HCV replicon assay, qRT-PCR (HCV RNA detection), genotype 1a replicon EC50. The format is cell-based. The note with it: Hepatitis C virus, read-out: 1a EC50. In general terms: Replicon systems follow genome replication, usually without infectious particles.

On to `COC(=O)N[C@H](C(=O)N1C[C@@H](C2CC2)C[C@H]1c1ncc(-c2ccc(-c3ccc(-c4cnc([C@@H]5C[C@H](C6CC6)CN5C(=O)[C@@H](NC(=O)OC)C(C)C)[nH]4)cc3)cc2)[nH]1)C(C)C` [Compound A229], for which, in assay [1], the EC50 – broadly, the concentration giving half of the maximal effect – is 0.087 nM. With `COC(=O)N[C@H](C(=O)N1CCC[C@H]1c1nc(-c2ccc(-c3ccc(-c4c[nH]c([C@@H]5C[C@@]6(CCCO6)CN5C(=O)[C@@H](NC(=O)OC)C(C)C)n4)cc3)cc2)c[nH]1)C(C)C` [Compound 83], the EC50 in assay [1] was determined as 0.019 nM.

Regarding `COC(=O)N[C@H](C(=O)N1CCC[C@H]1c1ncc(-c2ccc(-c3ccc(-c4cnc([C@@H]5C[C@H](C6CC6)CN5C(=O)[C@@H](NC(=O)OC)C(C)C)[nH]4)cc3)cc2)[nH]1)C(C)C` [Compound A83], the EC50 in assay [2] came out at 0.07 nM.
